Experimental data taken from patent US7015236B2, “N-heteroarylnicotinamide derivatives” (Sankyo Agro Company, Limited, priority 2001, dated 2006).

What was measured:
[1] = system: green peach aphid (Myzus persicae); experiment: Insecticidal test for green peach aphid (10 ppm and 3 ppm), Test Example 2; format: in vivo; conditions: same manner as Test Example 1; for mortality at 3 ppm: Chemical concentration of spray 3 ppm; for mortality at 10 ppm: Chemical concentration of spray 10 ppm
Description: (§1) Water (30 ml) was put into a beaker, and a leaf of Komatsuna (Brassica var. rapa) was placed within the beaker such that the stem was immersed in water. On the leaf of Komatsuna, five green peach aphids were released and allowed to fertilize. Two days after the releasing, imagoes were removed and the number of larvae was counted.
(§2) A surfactant Newcol NE-710F (trademark, produced by Nippon Nyukazai Co., Ltd., 2%) was dissolved in aqueous acetone (95% aqueous solution, 98%) to prepare solution 1. Next, a dispersant Gousenol GLO5-S (trademark, produced by Nippon Nyukazai Co., Ltd., 0.2% aqueous solution, 0.2%) was dissolved in water (99.8%) to prepare solution 2.
(§3) To each of the compounds (8 mg) of the present invention, the above solution 1 (0.4 ml), the above solution 2 (0.4 ml) and water (8 ml) were added. Further, the compounds of the present invention were each diluted with water so that the concentration of each compound was 100 ppm {as a spreading agent, Gramin S (trademark, produced by Sankyo Co., Ltd.) was added so as to have a concentration of 0.01%}.
(§4) The above chemical liquid (8 ml) was sprayed on the leaf of Komatsuna by use of a rotary spraying tower. The leaf of Komatsuna was put back in the beaker. Then, the beaker was placed in a thermostatic chamber of 25° C. for 16 hours in the light and for 8 hours in the dark. 5 Days after the spraying, the number of dead insects was counted to calculate the mortality (%).
Insecticidal Test for Green Peach Aphid (Myzus persicae) (10 ppm and 3 ppm)
The test was carried out in the same manner as in Test Example 1 except for setting the dilution concentration to 10 ppm and 3 ppm. Incidentally, Comparative Compound a and Comparative Compound b (Compound No. 6) listed in Table 1 of Japanese Provisional Patent Publication No. Hei 10-195072 were used as a comparison. [drawing 25]

[2] = system: green peach aphid (Myzus persicae); experiment: Insecticidal test for green peach aphid (100 ppm), Test Example 1; format: in vivo; conditions: 120 h, 100 ppm spray on Komatsuna leaf, larvae, counted 5 days after spraying, 25° C., read-out: mortality (%)
Description: Insecticidal test for green peach aphid (Myzus persicae) (100 ppm)
as §1, §2, §3, §4

| SMILES | mortality at 3 ppm [1] [%] | mortality at 10 ppm [1] [%] | mortality at 100 ppm [2] [%] |
| --- | --- | --- | --- |
| Cc1cnc(NC(=O)c2cnccc2C(F)(F)F)s1 [Comparative Compound a, reference compound] | 0 | 6 | – |
| O=C(Nc1nncs1)c1cnccc1C(F)(F)F [Comparative Compound b, reference compound] | 0 | 0 | – |
| Cc1cc(NC(=O)c2cnccc2C(F)(F)F)on1 [Example 1, N-(3-Methyl-5-isoxazolyl)-4-(trifluoromethyl)nicotinamide] | 100 | 100 | ≥ 95 |
| O=C(Nc1ccno1)c1cnccc1C(F)(F)F [Example 4, N-(5-Isoxazolyl)-4-(trifluoromethyl)nicotinamide] | 100 | 100 | ≥ 95 |
| Cc1ccc(-c2cnoc2NC(=O)c2cnccc2C(F)(F)F)cc1 [Example 54, N-[4-(4-Methylphenyl)-5-isoxazolyl]-4-(trifluoromethyl)nicotinamide] | – | – | ≥ 95 |
| COc1ccc(-c2cnoc2NC(=O)c2cnccc2C(F)(F)F)cc1 [Example 55, N-[4-(4-Methoxyphenyl)-5-isoxazolyl]-4-(trifluoromethyl)nicotinamide] | – | – | ≥ 95 |
| O=C(Nc1oncc1-c1ccc(Cl)cc1)c1cnccc1C(F)(F)F [Example 56, N-[4-(4-Chlorophenyl)-5-isoxazolyl]-4-(trifluoromethyl)nicotinamide] | – | – | ≥ 95 |
| O=C(Nc1oncc1-c1ccc(C(F)(F)F)cc1)c1cnccc1C(F)(F)F [Example 57, N-[4-(4-Trifluoromethylphenyl)-5-isoxazolyl]-4-(trifluoromethyl)nicotinamide] | – | – | ≥ 95 |
| O=C(Nc1oncc1-c1ccc(OC(F)(F)F)cc1)c1cnccc1C(F)(F)F [Example 58, N-[4-(4-Trifluoromethoxyphenyl)-5-isoxazolyl]-4-(trifluoromethyl)nicotinamide] | – | – | ≥ 95 |
| O=C(Nc1oncc1-c1cccnc1)c1cnccc1C(F)(F)F [Example 59, N-[4-(3-Pyridyl)-5-isoxazolyl]-4-(trifluoromethyl)nicotinamide] | – | – | ≥ 95 |
| CON=Cc1noc(NC(=O)c2cnccc2C(F)(F)F)c1Cl [Example 60, N-(4-Chloro-3-methoxyiminomethyl-5-isoxazolyl)-4-(trifluoromethyl)nicotinamide] | – | – | ≥ 95 |
| Cc1noc(NC(=O)c2cnccc2C(F)(F)F)c1-c1ccccc1 [Example 61, N-(3-Methyl-4-phenyl-5-isoxazolyl)-4-(trifluoromethyl)nicotinamide] | – | – | ≥ 95 |
| O=C(Nc1oncc1C1=CCCCC1)c1cnccc1C(F)(F)F [Example 62, N-[4-(Cyclohex-1-ene-1-yl)-5-isoxazolyl]-4-(trifluoromethyl)nicotinamide] | – | – | ≥ 95 |
| COCc1cnoc1NC(=O)c1cnccc1C(F)(F)F [Example 63, N-(4-Methoxymethyl-5-isoxazolyl)-4-(trifluoromethyl)nicotinamide] | – | – | ≥ 95 |
| O=C(Nc1oncc1-n1cccn1)c1cnccc1C(F)(F)F [Example 64, N-[4-(1H-Pyrazol-1-yl)-5-isoxazolyl]-4-(trifluoromethyl)nicotinamide] | – | – | ≥ 95 |
| O=C(Nc1oncc1C1CCCCC1)c1cnccc1C(F)(F)F [Example 65, N-(4-Cyclohexyl-5-isoxazolyl)-4-(trifluoromethyl)nicotinamide] | – | – | ≥ 95 |
| Cc1noc(NC(=O)c2cnccc2C(F)(F)F)c1F [Example 66, N-(4-Fluoro-3-methyl-5-isoxazolyl)-4-(trifluoromethyl)nicotinamide] | – | – | ≥ 95 |
